Reference: patent publication US20240325539A1, “METHODS AND COMPOSITIONS FOR TREATING EPSTEIN BARR VIRUS-ASSOCIATED CANCER” (The Chancellor, Masters and Scholars of the University of …, priority 2020, published 2024)

Columns and labels:
AGS-EBV cells [1] = assay: Killing of AGS-EBV cells by Zta-specific TCR-T cells (IncuCyte, Cytotox Red); format: cell-based, human; details: for cell death of AGS-EBV cells: HDACi pre-treatment, then primary T cells expressing TCR4, after 8 h of co-culture, compared to DMSO
Protocol: EBV+GC cells were treated with either 2.5 μM of CXD101, 5 μM of chidamide, or 5 μM of SAHA, and DMSO was used as a negative control. Approximately 10×10^5 AGS-EBV cells were plated in […] the day before treatment to allow 50% confluence. The next day, the media was removed, and the cells were treated for 48 hours with the HDACi or DMSO. After 48 hours, the cells were dissociated with trypsin-EDTA and counted. The dissociated cells were plated in the wells of a flat-bottomed 96-well plate and left to adhere for 4-6 hours before the addition of Zta-specific T cells. The IncuCyte S3 Live-Cell analysis system was used to analyze the interactions between the T cells and the HDACi-treated gastric cells over a period of 24 hours. The cells were cultured at an E:T ratio of 10:1. The IncuCyte® Cytotox Red Reagent for counting dead cells was added to each well at the start of incubation. The treated AGS-EBV cells were co-cultured with the HLA-A*02:01-restricted TCR4 primary T cell clones and the HLA-mismatched control clone, TCR9. After 24 hours of incubation, the supernatant was removed from the wells for quantification of cytokines. The ability of the clones to kill the target cells was assessed using the automated IncuCyte analysis software. The Cytotox Red apoptosis marker that was added to the wells at the start of co-culture was taken up by dead cells, and the overlap area of this red fluorescence with larger, very bright GFP cells was measured in μm^2 per replicate well at each set time point.

[2] = tested on: PBMCs from an EBV+ healthy donor; assay: IFNγ ELISpot of ex vivo EBV-specific CD8+ T cell responses; format: cell-based, human; details: PBMCs with pool of EBV epitopes, 12 hours; range of doses
From the text: To be able to effectively “kick” EBV+GC cells into Zta+ abortive EBV reactivation lytic cycle presented us with an opportunity to “kill” the reactivated EBV+ cancer cells by harnessing the host's immune system, Zta specific T cells in particular as Zta is highly immunogenic (Pudney, V. A., et al. (2005). J Exp Med 201, 349-360) and many EBV seropositive individuals have Zta memory T cells. This study was set out to test whether HDACi have any direct impacts on CD8+ T cell responses to EBV viral antigens. Peripheral blood mononuclear cells (PBMCs) from an EBV+ healthy donor were stimulated with a pool of pre-determined EBV epitopes in the presence or absence of HDACi for 12 hours, and ex vivo EBV-specific CD8+ T cell responses were determined by an IFNγ ELISpot assay. […] In parallel, the optimal dose of each HDACi for AGS-EBV to minimize cell toxicity versus their ability to induce Zta expression was determined (FIG. 15A). To provide a proof of principle, whether reactivation of Zta by HDACi could sensitize tumor cells for recognition and killing by Zta-specific CD8+ T cells was subsequently tested. […] The TCR gene was retrovirally transduced into a TCR-negative T cell line (SKW3) or primary human CD8+ T cells for functional readouts, including cytokine production and killing of the tumor cells.

PD-LCL cells = assay: Western blot for Zta in lymphoblastoid cell line; format: cell-based, human; details: detectable in DMSO treated cells
Protocol: (§1) Protein concentration was determined by the Bradford assay.
(§2) CXD101 is currently undergoing clinical trials (Eyre, T. A., et al. (2019). Cancer 125, 99-108.), and chidamide is approved in China by the National Medical Products Administration (NMPA) for treatment of peripheral T-cell lymphoma (Xu, Y., et al. (2017). Drugs of Today; 53.) and breast cancer (Jiang, Z., et al. (2018). Annals of Oncology; 29.). Therefore, chidamide and CXD101 were used to treat naturally-infected Burkitt lymphoma cell lines Namalwa, Raji, and Akata, or the ex vivo infected lymphoblastoid cell line PD-LCL in parallel with YCCEL1 cells. Romidepsin was used to treat the same panel of cells. […] Zta expression level in ex vivo infected B cell line PD-LCL is detectable in DMSO treated cells and it is not affected after HDACi treatment. All HDACis used induced detectable amounts of H3-ac, with cell line-dependent variation (FIG. 1E). To assess the extent of EBV reactivation, mRNA expression of several immediate-early, early, and late lytic genes was analysed (FIG. 9E). […] Up to 5-10% of YCCEL1 and SNU719 cells were positive for late Viral Capsid Antigen (VCA) after chidamide or CXD101 treatment, but not SAHA-treatment. […] Both benzamide- and hydroxymate-based HDACi can induce EBV reactivation in gastric epithelial cancer cells, but benzamide-based HDACis are generally less toxic than hydroxymate-based HDACi.

YCCEL1 cells [3] = assay: High content imaging of Zta-positive cells (immunofluorescence)
Protocol: Cells were seeded on 13 mm coverslips or 96 well-plates 24 h prior to the treatment. After washing with PBS, cells were fixed by the addition of 4% formaldehyde (Life Technologies) in PBS for 10 min, washed three times with PBS, and incubated with 0.1% Triton X-100 for 20 min. After three more washes, coverslips were incubated with Signal Enhancer for 30 min. Following one wash, cells were incubated with the primary antibody diluted in antibody diluent (Dako) with a background reducing agent for 90 min. After washing three times, coverslips were incubated with a secondary antibody solution containing DAPI diluted in antibody diluent for 1 h in the dark. Coverslips were washed three times with PBS and once in purified water before coverslips were mounted on Polysine Microscope Adhesion slides with ProLong Gold Antifade Mountant (Life Technologies). Cells affixed on slides were visualized using a Zeiss LSM 710 laser scanning confocal microscope, while cells on 96 well plates were visualized using the Operetta High Content Screening System (PerkinElmer).
Experiments were run in duplicate. Liquid handling for cell plating, drug treatment, and cell fixation was performed using a JANUS PerkinElmer Automated Workstation (PerkinElmer). […] All other staining steps were performed with a FlexDrop PLUS (PerkinElmer). Cells were visualized using a GE IN Cell Analyzer 6000 (GE Healthcare Life Sciences) with a 10× objective. Percentages of Zta-positive cells within the wells were assessed with a protocol established within the Columbus software (PerkinElmer).
The readout was percentage of cells positive for the immediate-early viral transcription factor Zta, as assessed by immunofluorescence staining and confocal microscopy.

YCCEL1 cells [4] = format: cell-based, human
AGS-EBV cells [5] = assay: RT-qPCR of EBV lytic genes; format: cell-based, human
From the text: RNA was extracted from cells using the RNeasy Mini Kit (Qiagen), following the manufacturer's instructions. Possible contamination with genomic DNA was removed by treatment with DNase I according to the manufacturer's instructions. One μg was used to generate cDNA using the SuperScript Reverse Transcriptase III System following the manufacturer's instructions. QuantiTect SYBR Green PCR Kit was used to perform RT-qPCR using the StepOnePlus real-time PCR system (Applied Biosystems). Reactions were performed in duplicate and in a final volume of 20 μL. Relative mRNA abundances were normalized to endogenous glyceraldehyde 3-phosphate dehydrogenase (GAPDH) mRNA levels. Shown qPCR results were analyzed by the ΔΔCt-method, with the threshold cycles being determined by the Applied Biosystems software.

[6] = tested on: Burkitt lymphoma cell lines Namalwa, Raji, and Akata; assay: Western blot for Zta and H3-ac in Burkitt lymphoma cell lines; format: cell-based, human; details: naturally infected Burkitt lymphoma cell lines
Protocol: as §1, §2

AGS-EBV cells [7] = assay: Zta expression (immunofluorescence and Western blot); format: cell-based, human; details: for Zta expression: 5 μM SAHA, 5 μM chidamide, 2.5 μM CXD101
Protocol: as §1

YCCEL1 cells [8] = assay: Western blot for Zta and total acetylation of histone 3; format: cell-based, human; details: FIGS. 1C and 9D (YCCEL1; SNU719)
Protocol: as §1

NCC-24 cells = assay: Western blot for p53 and Zta; format: cell-based, human; details: NCC-24, mutant TP53 (G266R and R273H)

Compound	toxicity induced by T cells (AGS-EBV cells [1]; AGS-EBV, compared to SAHA (P<0.01))	cell death of AGS-EBV cells (AGS-EBV cells [1])	effect on T cell responses to EBV antigens [2]	Zta expression level (PD-LCL cells)	Zta+ cells (YCCEL1 cells [3]; 5 μM) [%]	Zta+ cells (YCCEL1 cells [3]; 10 μM) [%]	Zta expression / EBV reactivation (YCCEL1 cells [3]; increasing concentrations (FIG. 1B))	toxicity (cell number relative to DMSO) (YCCEL1 cells [4])	activation of lytic genes (AGS-EBV cells [5])	Zta expression [6]	Zta expression (AGS-EBV cells [7])	induction of Zta expression (Western blot) (YCCEL1 cells [8])	total histone 3 acetylation (H3-ac) (YCCEL1 cells [8])	Zta expression (NCC-24 cells)	Zta expression (Western blot) (AGS-EBV cells [7]; agent alone)
Cc1nn(C)cc1CN1CCC(c2ccc(C(=O)Nc3ccccc3N)cc2)CC1 [CXD101]	more pronounced	dramatic increase in cell death	little, if any, inhibitory effect	not affected	36.5	40.7	strong dose-dependent effect on Zta expression	low toxicity	comparable activation of lytic genes	none of these HDACi induced Zta expression	strong activation of Zta expression				
O=C(CCCCCCC(=O)Nc1ccccc1)NO [SAHA]		dramatic increase in cell death							comparable activation of lytic genes		strong activation of Zta expression	failure	induced detectable H3-ac		
COc1ccc(C2=N[C@@H](c3ccc(Cl)cc3)[C@@H](c3ccc(Cl)cc3)N2C(=O)N2CCNC(=O)C2)c(OC(C)C)c1 [nutlin-3a]														failed to express Zta	able to induce high levels of Zta expression
